# Assay results published in patent US20200315176A1, “FUNGICIDAL COMPOSITIONS” (SYNGENTA PARTICIPATIONS AG, priority 2017, published 2020).
# Tests used:
# Phakopsora pachrhizi = assay: Example A3: fungicidal activity against Phakopsora pachrhizi / soybean / leaf disc preventative (Asian soybean rust); type: in vivo; conditions: Phakopsora pachyrhizi, foliar, 200 ppm in the applied formulation, soybean leaf disks, read-out: disease control
# Method: (§1) Leaf disks or leaf segments of various plant species are cut from plants grown in a greenhouse. The cut leaf disks or segments are placed in multiwell plates (24-well format) onto water agar. The leaf disks are sprayed with a test solution before (preventative) or after (curative) inoculation. Compounds to be tested are prepared as DMSO solutions (max. 10 mg/mL) which are diluted to the appropriate concentration with 0.025% Tween20 just before spraying. The inoculated leaf disks or segments are incubated under defined conditions (temperature, relative humidity, light, etc.) according to the respective test system. A single evaluation of disease level is carried out 3 to 14 days after inoculation, depending on the pathosystem. Percent disease control relative to the untreated check leaf disks or segments is then calculated.
# Soybean leaf disks are placed on water agar in multiwell plates (24-well format) and sprayed with the formulated test compound diluted in water. One day after application leaf discs are inoculated by spraying a spore suspension on the lower leaf surface. After an incubation period in a climate cabinet of 24-36 hours in darkness at 20° C. and 75% rh leaf disc are kept at 20° C. with 12 h light/day and 75% rh. The activity of a compound is assessed as percent disease control compared to untreated when an appropriate level of disease damage appears in untreated check leaf disks (12 to 14 days after application).
# [1] = tested on: Glomerella lagenarium (Colletotrichum lagenarium); assay: Example A4: fungicidal activity against Glomerella lagenarium (Colletotrichum lagenarium) liquid culture / cucumber / preventative (anthracnose); type: cell-based; conditions: Colletotrichum orbiculare, 20 ppm in the applied formulation, growth measured photometrically 3 to 4 days after application, read-out: disease control
# Method: Mycelia fragments or conidia suspensions of a fungus prepared either freshly from liquid cultures of the fungus or from cryogenic storage, are directly mixed into nutrient broth. DMSO solutions of the test compound (max. 10 mg/mL) are diluted with 0.025% Tween20 by a factor of 50 and 10 μL of this solution is pipetted into a microtiter plate (96-well format). The nutrient broth containing the fungal spores/mycelia fragments is then added to give an end concentration of the tested compound. The test plates are incubated in the dark at 24° C. and 96% relative humidity. The inhibition of fungal growth is determined photometrically after 2 to 7 days, depending on the pathosystem, and percent antifungal activity relative to the untreated check is calculated. Conidia of the fungus from cryogenic storage are directly mixed into nutrient broth (PDB—potato dextrose broth). After placing a (DMSO) solution of test compound into a microtiter plate (96-well format), the nutrient broth containing the fungal spores is added.
# [2] = tested on: Puccinia recondita f. sp. tritici; assay: Example A2: fungicidal activity against Puccinia recondita f. sp. tritici / wheat / leaf disc curative (brown rust); type: in vivo; conditions: foliar, 24 h, 200 ppm in the applied formulation, curative (applied 1 day after inoculation), wheat leaf segments, read-out: disease control
# Method: as §1
# Wheat leaf segments cv. Kanzler are placed on agar in multiwell plates (24-well format). The leaf segments are then inoculated with a spore suspension of the fungus. Plates were stored in darkness at 19° C. and 75% relative humidity. The formulated test compound diluted in water was applied 1 day after inoculation. The leaf segments were incubated at 19° C. and 75% relative humidity under a light regime of 12 hours light/12 hours darkness in a climate cabinet and the activity of a compound was assessed as percent disease control compared to untreated when an appropriate level of disease damage appears in untreated check leaf segments (6 to 8 days after application).
# [3] = tested on: Puccinia recondita f. sp. tritici; assay: Example A1: fungicidal activity against Puccinia recondita f. sp. tritici / wheat / leaf disc preventative (brown rust); type: in vivo; conditions: foliar, 200 ppm in the applied formulation, wheat leaf segments, compared to untreated, read-out: disease control
# Method: as §1
# Wheat leaf segments cv. Kanzler were placed on agar in multiwell plates (24-well format) and sprayed with the formulated test compound diluted in water. The leaf disks were inoculated with a spore suspension of the fungus 1 day after application. The inoculated leaf segments were incubated at 19° C. and 75% relative humidity (rh) under a light regime of 12 hours light/12 hours darkness in a climate cabinet and the activity of a compound was assessed as percent disease control compared to untreated when an appropriate level of disease damage appears in untreated check leaf segments (7 to 9 days after application).
compound,measurement,setting,value
"CONC(=O)c1cnn(Cc2ccc(-c3noc(C(F)(F)F)n3)cc2)c1 [X.17, N-methoxy-1-[[4-[5-(trifluoromethyl)-1,2,4-oxadiazol-3-yl]phenyl]methyl]pyrazole-4-carboxamide]",melting point,,128 to 138 °C
same,pest or weed control at 200 ppm,Phakopsora pachrhizi,≥ 80%
same,inhibition of growth at 20 ppm,[1],≥ 80%
same,pest or weed control at 200 ppm,[2],≥ 80%
same,pest or weed control at 200 ppm,[3],≥ 80%
"CCNC(=O)c1cnn(Cc2ccc(-c3noc(C(F)(F)F)n3)cc2)c1 [X.18, N-ethyl-1-[[4-[5-(trifluoromethyl)-1,2,4-oxadiazol-3-yl]phenyl]methyl]pyrazole-4-carboxamide]",melting point,,166 to 176 °C
same,pest or weed control at 200 ppm,Phakopsora pachrhizi,≥ 80%
same,inhibition of growth at 20 ppm,[1],≥ 80%
same,pest or weed control at 200 ppm,[2],≥ 80%
same,pest or weed control at 200 ppm,[3],≥ 80%
